Data published in US9464280B1, “Beta-lactamases with improved properties for therapy” (priority 2014, dated 2016).
Converted amounts (≈) assume the structure as drawn. Read-outs that look alike come from different tables or passages of the source.

Columns and labels:
[1] = test system: Escherichia coli ATCC 25922; experiment: microbe, parasite or virus in culture; assay type: cell-based; conditions: for EC50 / EC90: Escherichia coli, ATCC25922, no enzyme
[2] = test system: Escherichia coli ATCC 25922; experiment: Microbroth dilution: EC50 of ampicillin and ceftriaxone in absence and presence of P1A; assay type: cell-based; conditions: Escherichia coli, ATCC25922, P1A 0, read-out: Ampiellin EC50
Protocol: (§1) Escherichia coli strain 25922 was cultured from glycerol stocks to logarithmic growth in cation adjusted Mueller-Hinton broth at 37° C. in an atmospheric environment and diluted in cation adjusted Mueller-Hinton broth to achieve a starting in well concentration of 5×10^5 CFU/mL. Serial 2-fold dilution of antimicrobial compounds were prepared in cation adjusted Mueller-Hinton broth to achieve final in well concentration of 128 μg/mL to 0.13 μg/mL for ampicillin and 4 μg/mL 4 ng/mL in the absence or presence of serial 10-fold dilutions of P1A, P3A, or P4A β-lactamase standard, 5 pg/mL to 50 ng/mL for ampicillin and […] to 500 ng/mL for ceftriaxone, ceftazidime, meropenem, cefepime, cefazolin, amp/sulbactam, cefoperazone, cefotaxime, and cefuroxime. Antibiotics were either added to the P1A and incubated for 30 min at 37° C. (pre-incubation) prior to addition of bacteria, or added to the plates following the addition of P1A, P3A, P4A, and bacteria (simultaneous). All concentrations and combinations were evaluated in triplicate in a 96-well plate format that contained media only, compound plus media only (colorimetric control), and untreated bacterial controls.
The 50% effective inhibitory concentration (EC50) of ampicillin and ceftriaxone against Escherichia coli was determined in the absence and presence of P1A β-lactamase. For the purposes of these studies, the stated effective concentration was the initial concentration of ampicillin or ceftriaxone added at the beginning of the experiment, and not a concentration measured during the course of the experiment or at the end of the incubation period.
Antibiotics were either added to the P1A and incubated for 30 min at 37° C. (Pre-incubation) prior to addition of bacteria, or added to the plates following the addition of P1A and bacteria (Simultaneous). All concentrations and combinations were evaluated in triplicate in a 96-well plate format. Following overnight incubation, the 0D625 of the plates was measured in a Spectramax 384 plate reader and the data were imported into a customized Excel spreadsheet for the determination of the 50% effective inhibitory concentration at (EC50) by linear regression analysis. For the purposes of these studies, the stated effective concentration is the initial concentration of ampicillin or ceftriaxone added at the beginning of the experiment, and not a concentration measured during the course of the experiment or at the end of the incubation period.
Antibiotics were either added to the P1A and incubated for 30 min at 37° C. (Pre-incubation) prior to addition of bacteria, or added to the plates following the addition of P1A and bacteria (Simultaneous). All concentrations and combinations were evaluated in triplicate in a 96-well plate format. Following overnight incubation, the OD625 of the plates was measured in a Spectramax 384 plate reader and the data were imported into a customized Excel spreadsheet for the determination of the 50% effective inhibitory concentration (EC50).
Antibiotics were added to the P1A bacteria (Simultaneous). All concentrations and combinations were evaluated in triplicate in a 96-well plate format. Following overnight incubation, the OD625 of the plates was measured in a Spectramax 384 plate reader and the data were imported into a customized Excel spreadsheet for the determination of the 50% effective inhibitory concentration at (EC50) by linear regression analysis.

[3] = test system: Escherichia coli ATCC 25922; experiment: microbe, parasite or virus in culture; assay type: cell-based; conditions: for EC90: Escherichia coli, ATCC25922, no enzyme
Protocol: as §1
Next, the 90% effective inhibitory concentration (EC90) of ampicillin, ceftriaxone, ceftazidime, meropenem, cefepime, cefazolin, amp/sulbactam, cefoperazone, cefotaxime, and cefuroxime against Escherichia coli was determined in the absence and presence of P1A, P3A, or P4A β-lactamase. For the purposes of these studies, the stated effective concentration was the initial concentration of ampicillin, ceftriaxone, ceftazidime, meropenem, cefepime, cefazolin, amp/sulbactam, cefoperazone, cefotaxime, and cefuroxime added at the beginning of the experiment, and not a concentration measured during the course of the experiment or at the end of the incubation period.
Specifically, the assay was performed by diluting (2-fold steps) the chosen antibiotic across the rows of a 96 well dish. The MIC was determined as the point at which the diluted antibiotic transitions from killing to not killing the bacteria (in this case, an E. coli strain that is sensitive to all antibiotics). P1A, P3A, and P4A were diluted (10 fold steps) down the columns (the β-lactamase concentrations increased down the columns). […] The latter point was used as the cut-off point. […] However, for this assay, the absolute MIC is not the most important parameter. The most relevant readout was the β-lactamase concentration at which the apparent MIC increases to the maximum amount of antibiotic tested.
(§2) E coli 29522 was incubated overnight in the presence of serial dilutions of antibiotic and the indicated amounts of β-lactamase protein from cell culture supernatants in a 96 well plate. Bacterial density (OD625) of the cultures was measured and the concentration at which the density was reduced by 90% relative to an untreated bacterial control (EC90) was determined. The assay was performed on two separate days and the data reported as Rep1 and Rep2. NA=not assayed.
as §2, with “determined.” for “determined. The assay was performed on two separate days and the data reported as Rep1 and Rep2. NA=not assayed.”

[4] = Preliminary enzymatic activity of P1A mutants from B. subtilis supernatants; assay type: biochemical; conditions: B. subtilis supernatant, one substrate concentration
Protocol: β-lactamase activity of the mutants was further characterised from E. coli cell lysates and B. subtilis growth supernatant with ampicillin, cefotaxime, ceftriaxone, cefuroxime, ceftazidime, meropenem and imipenem. The activities were determined using only one substrate concentration of each antibiotic tested. Selection of the antibiotic concentration was done with the antibiotic concentration as high as was practical, [S]>>Km. Based on these preliminary experiments, more accurate kinetic parameters were determined for a couple of mutants from both the site-directed and the random mutagenesis research lines. All the mutant enzymes selected for more detailed study were expressed in the B. subtilis host strain RS303. The cells carrying the mutated proteins were grown in minimal medium over-night after which the cells were harvested and the supernatant was concentrated in 1:10 with Amicon Ultra-4 centrifugal devices, MWCO 10000 (Amicon). Protein concentration in each culture supernatant was estimated from 12% SDS-PAGE (Criterion XT Bis-Tris, BioRad, Calif., USA) using the P1A reference material A18K31 as a standard. Kinetic parameters were measured for cefotaxime, ceftriaxone and cefuroxime for each selected mutant strain. The site-directed mutants were designed to hydrolyze cefotaxime and random mutants were screened with ceftriaxone, which made these antibiotics natural choices for determining kinetic parameters.

E. coli (ATCC 25922) = experiment: Microtiter plate antibiotic degradation activity assay; assay type: cell-based
Protocol: P1A and P4A were screened for degradation of ampicillin, ceftriazone, cefotaxime, cefozolin, cefuroxime, cefoperazone, cefepime, and ceftazidime in a microtiter plate activity assay that was designed to mimic the activity of the beta-lactamases in the gut in the presence of high antibiotic concentrations. The assay was performed by mixing 10, 100 or 1000 μg/ml of the indicated antibiotics with P1A or P4A, at concentrations of 10 or 100 ng/ml. Plates were either incubated for one hour at 37° C. after which E. coli (ATCC 25922) was added, or E. coli was added immediately after the addition of the beta-lactamase enzymes. The plates were incubated overnight and the bacterial growth quantified by measuring the absorbance at 625 nm (OD625) in a Spectramax 384 Plus plate reader. The analysis was performed twice for each beta-lactamase and antibiotic. The beta-lactamase activity of the culture supernatants was determined as positive or negative based on the appearance of bacterial growth in the individual wells. An OD625 of 1.0 or greater indicated maximal bacterial growth, therefore complete antibiotic degradation and high beta-lactamase activity.

[5] = no enzyme, 2nd value, high test 2 μg/mL

## CC1(C)S[C@@H]2[C@H](NC(=O)[C@H](N)c3ccccc3)C(=O)N2[C@H]1C(=O)O [Ampicillin]
[1]; Rep 1, Table 15, read-out: Ampiellin EC50
  EC50: 2 µg/mL (≈ 5.72 µM)
[1]; Rep 2, Table 15, read-out: Ampiellin EC50
  EC50: 4 µg/mL (≈ 11.4 µM)
[2]; pre-incubation, Table 12
  EC50: 16 µg/mL
[2]; pre-incubation, Table 13
  EC50: 16 µg/mL
[2]; simultaneous, Table 12
  EC50: 16 µg/mL
[2]; simultaneous, Table 13
  EC50: 16 µg/mL
[2]; simultaneous, Table 14 repeat analysis
  EC50: 16 µg/mL

## Cc1nnc(SCC2=C(C(=O)O)N3C(=O)[C@@H](NC(=O)Cn4cnnn4)[C@H]3SC2)s1 [Cefazolin]
[1]; 1st value, high test 64 μg/mL, read-out: Cefazolin EC90
  EC90: 2 µg/mL (≈ 4.4 µM)
[1]; 2nd value, high test 64 μg/mL, read-out: Cefazolin EC90
  EC90: 2 µg/mL (≈ 4.4 µM)

## CO/N=C(\C(=O)N[C@@H]1C(=O)N2C(C(=O)[O-])=C(C[N+]3(C)CCCC3)CS[C@H]12)c1csc(N)n1 [Cefepime]
[1]; 1st value, high test 2 μg/mL, read-out: Cefepime EC50
  EC50: 0.06 µg/mL (≈ 0.125 µM)
[1]; 2nd value, high test 2 μg/mL, read-out: Cefepime EC50
  EC50: 0.03 µg/mL (≈ 0.0624 µM)
[1]; [5]
  Cefepime EC50: 0.03/0.03 μg/mL

## CCN1CCN(C(=O)N[C@@H](C(=O)N[C@@H]2C(=O)N3C(C(=O)O)=C(CSc4nnnn4C)CS[C@H]23)c2ccc(O)cc2)C(=O)C1=O [Cefoperazone]
[1]; 1st value, high test 8 μg/mL, read-out: Cefoperazone EC90
  EC90: 0.25 µg/mL (≈ 0.387 µM)
[1]; 2nd value, high test 8 μg/mL, read-out: Cefoperazone EC90
  EC90: 0.13 µg/mL (≈ 0.201 µM)
[1]; no enzyme, 2nd value, high test 8 μg/mL
  Cefoperazone EC90: 0.25/0.25 μg/mL
[3]; no enzyme, 1st value, high test 8 μg/mL
  Cefoperazone EC90: 0.25/0.25 μg/mL

## CO/N=C(\C(=O)N[C@@H]1C(=O)N2C(C(=O)O)=C(COC(C)=O)CS[C@H]12)c1csc(N)n1 [Cefotaxime]
[1]; 1st value, high test 2 μg/mL, read-out: Cefotaxime EC90
  EC90: 0.004 µg/mL (≈ 0.00878 µM)
[1]; no enzyme, 1st value, high test 2 μg/mL
  Cefotaxime EC90: 0.004/0.004 μg/mL
[1]; [5]
  Cefotaxime EC90: 0.004/0.004 μg/mL
[3]; 2nd value, high test 2 μg/mL, read-out: Cefotaxime EC90
  EC90: 0.008 µg/mL

## CC(C)(O/N=C(\C(=O)N[C@@H]1C(=O)N2C(C(=O)[O-])=C(C[n+]3ccccc3)CS[C@H]12)c1csc(N)n1)C(=O)O [Ceftazidime]
[1]; 1st value, high test 4 μg/mL, read-out: Ceftazidime EC50
  EC50: 0.13 µg/mL (≈ 0.238 µM)
[1]; no enzyme, 1st value, high test 4 μg/mL
  Ceftazidime EC50: 0.13/0.13 μg/mL
[1]; no enzyme, 2nd value, high test 4 μg/mL
  Ceftazidime EC50: 0.5 µg/mL

## CO/N=C(\C(=O)N[C@@H]1C(=O)N2C(C(=O)O)=C(COC(N)=O)CS[C@H]12)c1ccco1 [Cefuroxime]
[1]; 2nd value, high test 128 μg/mL, read-out: Cefuroxime EC90
  EC90: 4 µg/mL (≈ 9.43 µM)
[1]; no enzyme, 2nd value, high test 128 μg/mL
  Cefuroxime EC90: 2.0 µg/mL
[3]; 1st value, high test 128 μg/mL, read-out: Cefuroxime EC90
  EC90: 4 µg/mL
[3]; no enzyme, 1st value, high test 128 μg/mL
  Cefuroxime EC90: 2.0 µg/mL

## C[C@@H](O)[C@H]1C(=O)N2C(C(=O)O)=C(S[C@@H]3CN[C@H](C(=O)N(C)C)C3)[C@H](C)[C@H]12 [Meropenem]
[1]; 1st value, high test 1 μg/mL, read-out: Meropenem EC50
  EC50: 0.06 µg/mL (≈ 0.156 µM)
[1]; 2nd value, high test 1 μg/mL, read-out: Meropenem EC50
  EC50: 0.06 µg/mL (≈ 0.156 µM)
[1]; no enzyme, 2nd value, high test 1 μg/mL
  Meropenem EC50: 0.03 µg/mL

## IS203: P1A with T160F
[4]
  AMP = ampicillin enzymatic activity: 0.01 multiples of P1A
  CAZ = ceftazidime enzymatic activity: 0.13 multiples of P1A
  CRO = ceftriaxone enzymatic activity: 0.00 multiples of P1A
  CTX = cefotaxime enzymatic activity: 0.01 multiples of P1A
  CXM = cefuroxime enzymatic activity: 0.00 multiples of P1A

B1: IS288: P1A with A232G A237S A238G S240D D276N; SEQ ID NO: 5 (protein)
chain: EMKDDFAKLEEQFDAKLGIFALDTGTNRTVAYRPDERFAFASTIKALTVGVLLQQKSIEDLNQRITTRDDLVNYNPITEKHVDTGMTLKELADASLRYSDNAAQNLILKQIGGPESLKKELRKIGDEVTNPERFEPELNEVNPGETQDTSTARALVTSLRAFALEDKLPSEKRELLIDWMKRNTTGDALIRAGVPDGWEVGDKTGSGDYGTRNDIAIIWPPKGDPVVLAVLSSRDKKDAKYDNKLIAEATKVVMKALNMNGK
[1]; data showed activity at 500 ng/ml
  improvement of activity for ceftazidime: 10 fold
[1]; for ceftriaxone, cefotaxime, ceftazidime, cefazolin, cefoperazone and cefuroxime
  β-lactamase activity in comparison to P1A: ≥ 10 fold
E. coli (ATCC 25922); enzyme 10 or 100 ng/ml, FIG. 8
  activity relative to P1A, all antibiotics except ampicillin: imporved activity relative to P1A
E. coli (ATCC 25922); modification of five amino acids in P1A
  cephalosporinase activity boosted relative to P1A: 10-1000 fold
[3]; amp/sulbactam data
  inhibition by sulbactam: effectively inhibited
